Experimental data as given in US8741954B2, “Synergistic enhancement of calcium propionate” (ViraTox, L.L.C., priority 2007, dated 2014).

Assays:
[1] = test system: Aspergillus niger (ATCC #6275), Chaetomium globosum (ATCC #6205) and Aspergillus terreus (ATCC #10690) suspensions; test: TAPPI T 487 pm-99 fungal resistance of treated paper; type: cell-based; conditions: treated Whatman paper coupons, 28° C., 21 day test, observed weekly
Procedure: This method is used to determine the resistance of paper and paperboard to fungal growth in ideally suited controlled conditions of light, temperature, moisture, and food supply. Treated 50 mm test coupons of paper are placed on a surface of test agar, flooded with a test inoculum of fungal spores, and incubated to determine fungal resistance. The rating that is provided follows an established protocol to determine the degree of mold growth on a rating scale reported as 1) not fungal resistant; 2) moderately fungal resistant; and 3) resistant.
Challenges of treated porous surfaces, represented by selected samples of untreated paper product specified as Whatman filter paper #4 and paper product specified as Whatman filter paper #4 treated with a solution of fungicides, are exposed to designated fungal suspensions known to cause failure under certain use conditions. The test samples are prepared according to T 487 pm-99 by aseptically removing pre-sterilized 50 mm paper coupons, previously equilibrated to room temperature, and then placed in a controlled chamber at 28+/−1° C. (82.40 F) and 95%-98% RH. The chamber is fitted with a tray filled with a salt solution to maintain humidity control. The test ensues continuously for 21 days and samples are observed weekly. The panels are rated each week according to the appearance of fungal growth.
This series of tests according to the TAPPI T 487 pm-99 protocol were conducted with multiple specimens of treated and untreated (Control) paper substrates with the specified fungal species of Aspergillus niger (ATCC #6275), Chaetomium globosum (ATCC #6205), and Aspergillus terreus (ATCC #10690) suspensions. The suspensions of inoculum were harvested from 14 day potato dextrose agar cultures into sterile water, combining the culture suspensions from each fungal genus and adjusting to concentrations of 10^6/ml. Triplicate substrate samples were then prepared from sheets of cellulose fiber papers (Whatman) cut into 50 mm squares and steam sterilized. The sterilized paper coupons were immersed in a solution of each challenge solution, allowed to soak for ten minutes, removed and placed into aluminum drying trays in a drying oven for 24 hours at 67° C. The test papers were placed onto the surface of prepared agar plates containing mineral-salt agar as outlined in T 487 pm-99. Two plies of paper were treated as a single test specimen and were directly pipetted with 1 ml of fungal suspension on the surface of each test coupon. The plates were then inverted and placed into humid incubation chambers and incubated at 28° C.+/−1 C for 21 days. Observations for growth were conducted on successive weekly schedules as well as verification of test inocula to distinguish contaminants or naturally occurring molds from actual challenge organisms. Growth was defined as sporulating, hyphael appearances directly from the paper substrate. The following comparative table depicts the various solutions and resistance results: […]

[2] = test system: suspension of fungal spores of Chaetomium globosum ATCC #6205, Aspergillus niger ATCC #6275 and Aspergillus terreus ATCC #10690; test: Disk diffusion method of determining susceptibility of fungi (developed from the Kirby-Bauer method); type: cell-based
Procedure: A disk diffusion method of determining susceptibility of fungi to Maquat 2525M 50% was developed from the Kirby-Bauer Bactericidal Disk Diffusion Method. […] This method was utilized as a screening method to achieve a rapid means of fungal inhibition after 5 days of incubation.
The inoculum was composed of a suspension of fungal spores harvested from one week cultures of ATCC #6205-Chaetomium globosum; ATCC #6275-Aspergillus niger; and, ATCC #10690-Aspergillus terreus. Once the plates were seeded with inoculum, DIFCO Concentration Disks (¼″) were impregnated with a 0.5% solution of Maquat 2525M 50%, allowed to air dry in sterile petri dishes and placed at equidistant locations on each plate. At the end of the five day incubation at 30° C., 5 plates containing four disks each were examined visually and microscopically.

SMILES | Days in Incubation [1] [days] | Resistance grade of specimens ([2]; DIFCO disks impregnated with solution (Maquat 0.5%, calcium propionate 2.5%, sodium carboxymethylcellulose 0.5%, cetylpyridinium chloride 0.125%), potato dextrose agar, 5 days at 30° C.) | Growth on disks, visual and microscopic examination ([2]; after the 5 day incubation period) | Resistance Grade [1]
CCCCCCCCCCCCCCCC[n+]1ccccc1 [1.25% cetylpyridinium chloride, cetylpyridinium chloride] | 15 |  |  | 
CCC(=O)[O-].CCC(=O)[O-].[Ca+2] [calcium propionate] | 8 | No Resistance | occluded with profuse growth | Not resistant
CCC(=O)O [1.5% propionic acid, propionic acid] | 9 |  |  | Not resistant
c1ccc2[nH]c(-c3cscn3)nc2c1 [Thiabendazole (TBZ) 1.0% Merck AgVet, Thiabendazole] | 17 |  |  | Moderately resistant
